The record followed here is US20250074895A1, “CDK2 INHIBITORS AND METHODS OF MAKING AND USING SAME” (BLUEPRINT MEDICINES CORPORATION, priority 2021, published 2025).

One test addresses CDK2/Cyclin E (Homo sapiens (Human), UniProt P24941). Briefly: Biochemical CDK inhibition assay (Caliper mobility shift), CDK2/Cyclin E. As to conditions: 1.0 mM ATP or ATP Km, 1.25 nM enzyme, apparent IC50, read-out: CDK2/cyclin E1 IC50. As to the method: (§1) Inhibitory effects of the compounds of the disclosure were measured in biochemical assays that measure the enzymatic phosphorylation activity of CDK enzyme in complex of Cyclin proteins phosphorylates 7.5 micromolar fluorescently labelled peptide substrate, 5-FAM-QSPKKG-CONH2, (FL-Peptide 18, Perkin Elmer, 760362) in the presence of adenosine-5′-triphosphate (ATP) and varying concentrations of the test compound in 100 mM 2-[4-(2-hydroxyethyl)piperazin-1-yl]ethanesulfonic acid (HEPES), pH 7.5, 10 mM MgCl2, 0.015% Brij-35, 1 mM dithiothreitol (DTT), 1.0% dimethylsulfoxide (DMSO). Assays were performed at 1.0 mM ATP or at ATP Km of the CDK enzymes in complex with Cyclin proteins. Reactions proceeded until between 10% to 20% total peptides were phosphorylated at room temperature (25° C.) and were terminated with 35 mM 2,2′,2″,2′″-(ethane-1,2-diyldinitrilo)tetraacetic acid (EDTA). Product was detected using the Caliper mobility shift detection method where the phosphorylated peptide (product) and substrate were electrophoretically separated and measured. Percent activity was plotted against log concentration of compound and points to generate an apparent IC50. The following CDK enzymes in complex with different cyclin proteins were used in these assays: • CDK1/Cyclin B1, GST-tag (BPS, 40454), 1.5 nM used in the assay • CDK2/Cyclin E (Eurofins, 14-475), 1.25 nM used in the assays
(§2) For inhibitory activity against CDK2/Cyclin […], the following designations are used: ≤10 nM=A; >10-20 nM=B; >20-30 nM=C; >30-100 nM=D and >100=E. For inhibition CDK1/Cyclin B1, GST-tag: ≥500 nM=A; 100-<500 nM=B; <100 nM=C.

A further test concerns the target CDK1/Cyclin B1, GST-tag (Homo sapiens (Human), UniProt P06493). The experiment in a line: Biochemical CDK inhibition assay (Caliper mobility shift), CDK1/Cyclin B1. As to conditions: 1.0 mM ATP or ATP Km, 1.5 nM enzyme, apparent IC50. As to the method: as §1, §2

Sequence of CDK1/Cyclin B1, GST-tag (P06493 whole entry): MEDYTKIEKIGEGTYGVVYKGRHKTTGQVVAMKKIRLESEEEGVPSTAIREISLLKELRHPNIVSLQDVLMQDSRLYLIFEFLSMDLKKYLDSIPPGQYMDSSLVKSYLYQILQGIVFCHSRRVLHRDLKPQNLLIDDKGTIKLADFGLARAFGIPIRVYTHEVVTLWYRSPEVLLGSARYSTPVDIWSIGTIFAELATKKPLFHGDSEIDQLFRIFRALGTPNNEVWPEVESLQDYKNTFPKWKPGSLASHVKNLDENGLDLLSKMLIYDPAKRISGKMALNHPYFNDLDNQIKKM
Sequence of CDK1/Cyclin B1, GST-tag (P14635 whole entry partner): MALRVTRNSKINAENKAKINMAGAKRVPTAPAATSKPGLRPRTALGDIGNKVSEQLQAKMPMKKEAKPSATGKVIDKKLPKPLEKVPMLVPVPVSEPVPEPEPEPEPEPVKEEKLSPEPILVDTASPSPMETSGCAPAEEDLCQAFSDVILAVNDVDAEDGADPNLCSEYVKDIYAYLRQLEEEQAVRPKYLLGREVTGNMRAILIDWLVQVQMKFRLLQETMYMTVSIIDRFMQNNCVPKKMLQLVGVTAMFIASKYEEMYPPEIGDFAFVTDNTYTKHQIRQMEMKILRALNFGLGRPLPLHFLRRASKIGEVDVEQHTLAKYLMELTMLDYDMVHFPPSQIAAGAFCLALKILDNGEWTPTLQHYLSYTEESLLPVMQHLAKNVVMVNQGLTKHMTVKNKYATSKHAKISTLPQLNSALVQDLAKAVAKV

Take `CNC(=O)O[C@@H]1CC[C@H](c2cc(Nc3cncc(OCC4CC4)n3)n[nH]2)C1` [Example 56, (1R,3S)-3-(3-((6-(cyclopropylmethoxy)pyrazin-2-yl)amino)-1H-pyrazol-5-yl)cyclopentyl methylcarbamate]: the IC50 on CDK2/Cyclin E is not above 10 nM; on CDK1/Cyclin B1, GST-tag, less than 100 nM.
Take `CC(C)NC(=O)O[C@@H]1CC[C@H](c2cc(Nc3cnc(C#N)cn3)n[nH]2)C1` [Example 53, (1R,3S)-3-(3-((5-cyanopyrazin-2-yl)amino)-1H-pyrazol-5-yl)cyclopentyl isopropylcarbamate]: the IC50 on CDK2/Cyclin E is not above 10 nM; on CDK1/Cyclin B1, GST-tag, 100 to 500 nM.
Take `CC(C)(O)c1cnc(Nc2cc([C@H]3CC[C@@H](OC(=O)N4CCC4(C)C)C3)[nH]n2)cn1` [Example 50, (1R,3S)-3-(3-((5-(2-hydroxypropan-2-yl)pyrazin-2-yl)amino)-1H-pyrazol-5-yl)cyclopentyl 2,2-dimethylazetidine-1-carboxylate]: the IC50 on CDK2/Cyclin E was not above 10 nM; on CDK1/Cyclin B1, GST-tag it was less than 100 nM.
